Measured values: patent publication US11369565B2, “Amino-pyrimidine skeletal muscle modulators” (Cytokinetics, Inc., priority 2010, dated 2022)

Test system: rabbit skeletal myofibrils (approximately 90% fast fibers)
Assay: Activation of fast skeletal myofibrils (PUMA coupled-enzyme ATPase assay at pCa25)
Format: biochemical
Conditions: concentration at which the compound increased the enzymatic activity by 40%; calcium at pCa25; PM12 buffer pH 6.8
Outline: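 Detergent-washed rabbit psoas myofibrils tested at calcium giving 25% of maximal rate (pCa25). ATPase activity tracked by pyruvate kinase/lactate dehydrogenase coupling, NADH oxidation read as absorbance at 340 nm, in PM12 buffer (12 mM Pipes, 2 mM MgCl2, 1 mM DTT, pH 6.8).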

Which “Mean AC1.4” value does the source give for `CC(C)(Nc1ncc(-c2cnnc(C(N)=O)c2)cn1)c1ncccc1Cl` [5-(2-{[1-(3-chloro(2-pyridyl))-isopropyl]amino)pyrimidin-5-yl)pyridazine-3-carboxamide] here?
Its value is “B (B=1-10 uM)”.

How did the “Mean AC1.4” value turn out when `NCc1cnc(-c2cnc(NCC3(c4ncccc4Cl)CCC3)nc2)s1` [{5-[5-(aminomethyl)(1,3-thiazol-2-yl)]pyrimidin-2-yl}{[3-chloro(2-pyridyl))cyclobutyl]methyl)amine] was run?
The value was “B (B=1-10 uM)”.

With `CC(C)(Nc1ncc(-c2cc(C(N)=O)ccc2F)cn1)c1ncccc1F` [4-fluoro-3-(2-{[1-(3-fluoro(2-pyridyl))-isopropyl]amino}pyrimidin-5-yl)benzamide] as the molecule, how does the “Mean AC1.4” value read?
Its value is “B (B=1-10 uM)”.

How did the “Mean AC1.4” value turn out when `Cc1nc(N)ncc1-c1cnc(NC[C@]2(c3ncccc3F)C[C@H](F)C2)nc1` [[5-(2-amino-4-methylpyrimidin-5-yl)pyrimidin-2-yl]{[3-fluoro-1-(3-fluoro(2-pyridyl))cyclobutyl]methyl}amine] was run?
Its value is “C (C=10-20 uM)”.

With `CC(=O)NCc1cnc(-c2cnc(NCC3(c4ncccc4Cl)CCC3)nc2)s1` [N-({2-[2-({[(3-chloro-2-pyridyl)cyclobutyl]methyl}amino)pyrimidin-5-yl]-1,3-thiazol-5-yl}methyl)acetamide] as the molecule, how does the “Mean AC1.4” value read?
The value was “A (A=<1 uM)”.

`CSc1cccnc1C(C)(C)Nc1ncc(-c2cccc(C(N)=O)c2)cn1` [3-(2-{[1-methyl-1-(3-methylthio(2-pyridyl))ethyl]amino}pyrimidin-5-yl)benzamide] was tested. Which “Mean AC1.4” value did it give?
Its value is “B (B=1-10 uM)”.

With `COC(=O)c1nc(-c2cnc(NC(C)(C)c3ncccc3Cl)nc2)cn1C` [methyl 4-(2-{[1-(3-chloro(2-pyridyl))-isopropyl}amino}pyrimidin-5-yl)-1-methylimidazole-2-carboxylate] as the molecule, how does the “Mean AC1.4” value read?
Its value is “D (D=>20 uM)”.

`CC(C)(Nc1ncc(-c2ncc(CNC(=O)[C@@H]3CCCN3)s2)cn1)c1ncccc1F` [((2S)pyrrolidin-2-yl)-N-{[2-(2-{[1-(3-fluoro(2-pyridyl))-isopropyl]amino}pyrimidin-5-yl)(1,3-thiazol-5-yl)]methyl}carboxamide] was tested. Which “Mean AC1.4” value did it give?
Its value is “C (C=10-20 uM)”.

`O=C(Nc1cccc(F)c1)c1cnc(NCC2(c3ncccc3F)CCC2)nc1` [[2-({[(3-fluoro(2-pyridyl))cyclobutyl]methyl}amino)pyrimidin-5-yl]-N-(3-fluorophenyl)carboxamide] was tested. Which “Mean AC1.4” value did it give?
Its value is “D (D=>20 uM)”.

With `CC(C)(Nc1ncc(-c2nc(C(N)=O)co2)cn1)c1ncccc1Cl` [2-(2-{[1-(3-chloro(2-pyridyl))-isopropyl]amino}pyrimidin-5-yl)-1,3-oxazole-4-carboxamide] as the molecule, how does the “Mean AC1.4” value read?
The value was “D (D=>20 uM)”.

With `COc1ccnc(NC[C@]2(c3ncccc3F)C[C@H](F)C2)n1` [{[3-fluoro-1-(3-fluoro(2-pyridyl))cyclobutyl]methyl}(4-methoxypyrimidin-2-yl)amine] as the molecule, how does the “Mean AC1.4” value read?
The value was “D (D=>20 uM)”.

With `CC(C)(Nc1ncc(-c2cc(C(N)=O)ccc2F)cn1)c1cccc(OC(F)F)n1` [3-[2-({1-[6-(difitioromethoxy)(2-pyridyl)]-isopropyl}amino)pyrimidin-5-yl]-4-fluorobenzamide] as the molecule, how does the “Mean AC1.4” value read?
Its value is “A (A=<1 uM)”.

Which “Mean AC1.4” value does the source give for `CNC(=O)c1ccn(-c2cnc(NC[C@]3(c4ncccc4F)C[C@H](F)C3)nc2)c1` [{1-[2-({[3-fluoro-1-(3-fluoro(2-pyridyl))cyclobutyl]methyl}amino)pyrimidin-5-yl]pyrro1-3-yl}-N-methylcarboxamide] here?
Its value is “B (B=1-10 uM)”.

With `Cc1nc(NC[C@]2(c3ncccc3F)C[C@H](F)C2)ncc1-c1cccc(CC(N)=O)c1` [2-{3-[2-({[3-fluoro-1-(3-fluoro(2-pyridyl))cyclobutyl]methyl}amino)-4-methylpyrimidin-5-yl]phenyl}acetamide] as the molecule, how does the “Mean AC1.4” value read?
Its value is “C (C=10-20 uM)”.

How did the “Mean AC1.4” value turn out when `NC(=O)Cc1cnc(-c2cnc(NC[C@]3(c4ncccc4Cl)C[C@H](F)C3)nc2)s1` [2-{2-[2-({[1-(3-chloro(2-pyridyl))-3-fluorocyclobutyl]methyl}amino)pyrimidin-5-yl]-1,3-thiazol-5-yl}acetamide] was run?
Its value is “B (B=1-10 uM)”.

Which “Mean AC1.4” value does the source give for `CC(C)(CNc1ncc(-c2cc(C(N)=O)ccc2F)cn1)c1ncccc1Cl` [3-(2-{[2-(3-chloro(2-pyridyl))-2-methylpropyl]amino}pyrimidin-5-yl)-4-fluorobenzamide] here?
The value was “A (A=<1 uM)”.

Which “Mean AC1.4” value does the source give for `CC(C)(Nc1ncc(-c2cn3c(C(=O)O)csc3n2)cn1)c1ncccc1Cl` here?
The value was “B (B=1-10 uM)”.

Which “Mean AC1.4” value does the source give for `Cc1cccnc1C(C)(C)Nc1ncc(-c2cc(C(N)=O)ccc2F)cn1` [4-fluoro-3-(2-{[1-methyl-1-(3-methyl(2-pyridyl))ethyl]amino}pyrimidin-5-yl)benzamide] here?
The value was “B (B=1-10 uM)”.

For `C[S+]([O-])c1cccnc1C(C)(C)Nc1ncc(-c2cccc(C(N)=O)c2)cn1` (stereo not shown) [3-(2-(2-(3-(methylsulfinyl)pyridin-2-yl)propan-2-ylamino)pyrimidin-5-yl)benzamide], which “Mean AC1.4” value is on record?
Its value is “D (D=>20 uM)”.

How did the “Mean AC1.4” value turn out when `Oc1ncc(-c2cnc(N3CC4(c5ncccc5F)CC3C4)nc2)cn1` [5-{2-[4-(3-fluoro-2-pyridyl)-2-azabicyclo[2.1.1]hex-2-yl]pyrimidin-5-yl}pyrimidin-2-ol] was run?
The value was “D (D=>20 uM)”.

How did the “Mean AC1.4” value turn out when `CC(C)(Nc1ncc(-n2cc(CNC(=O)CN)cn2)cn1)c1ncccc1Cl` [2-amino-N-{[1-(2-{[1-(3-chloro(2-pyridyl))-isopropyl]amino)pyrimidin-5-yl)pyrazol-4-yl]methyl]acetamide] was run?
Its value is “B (B=1-10 uM)”.

For `N#Cc1cnc(-c2cnc(NCC3(c4ccccn4)CCC3)nc2)s1` [2-(2-{[(2-pyridylcyclobutyl)methyl]amino}pyrimidin-5-yl)-1,3-thiazole-5-carbonitrile], which “Mean AC1.4” value is on record?
The value was “D (D=>20 uM)”.

How did the “Mean AC1.4” value turn out when `CC(C)(Nc1ncc(-c2cn3c(C(N)=O)csc3n2)cn1)c1ncccc1Cl` was run?
Its value is “B (B=1-10 uM)”.

Which “Mean AC1.4” value does the source give for `NC(=O)c1cnc(NC2(c3ccc(F)cc3)CCC2)nc1` [2-{[(4-fluorophenyl)cyclobutyl]amino} pyrimidine-5-carboxamide] here?
The value was “D (D=>20 uM)”.

Which “Mean AC1.4” value does the source give for `CNC(=O)c1cccc(-c2cnc(NCC3(c4ncccc4F)CCC3)nc2)c1` [{3-[2-({[(3-fluoro(2-pyridyl))cyclobutyl]methyl)amino)pyrimidin-5-yl]phenyl}-N-methylcarboxamide] here?
Its value is “B (B=1-10 uM)”.

With `O=c1cc(-c2cnc(NC[C@]3(c4ncccc4F)C[C@H](F)C3)nc2)[nH]c(=O)[nH]1` [6-[2-({[3-fluoro-1-(3-fluoro(2-pyridyl))cyclobutyl]methyl}amino)pyrimidin-5-yl]-1,3-dihydropyrimidine-2,4-dione] as the molecule, how does the “Mean AC1.4” value read?
Its value is “B (B=1-10 uM)”.

`NC(=O)c1cnn(-c2cnc(NCC3(c4ncccc4F)CCC3)nc2)c1` [1-[2-({[(3-fluoro-2-pyridyl)cyclobutyl]methyl}amino)pyrimidin-5-yl] pyrazole-4-carboxamide] was tested. Which “Mean AC1.4” value did it give?
Its value is “B (B=1-10 uM)”.

How did the “Mean AC1.4” value turn out when `CN(C(=O)c1ccnc(NCC2(c3ncccc3F)CCC2)n1)c1ccccc1` [[2-({[(3-fluoro(2-pyridyl))cyclobutyl]methyl}amino)pyrimidin-4-yl]-N-methyl-N-benzamide] was run?
Its value is “D (D=>20 uM)”.
